Laboratory results taken from patent US10017515B2, “Stable amorphous ticagrelor and a process for its preparation” (Sun Pharmaceutical Industries Limited, priority 2014, dated 2018).

Legend:
[1] = Stability on storage, HPLC purity; type: physicochemical; settings: material of Example 6
Method: HPLC purity (initial and at stability at a temperature of 25° C.±2° C. at relative humidity of 60% ±5% for 1, 2, 3, and 6 months): 99.8%
HPLC purity (initial and at stability at a temperature of 5° C.±3° C. for 3 and 6 months): 99.9%

[2] = Stability on storage, X-ray powder diffraction (XRPD) pattern; type: physicochemical
Method: The X-ray powder diffraction (XRPD) pattern was recorded using a PANalytical® X'pert PRO with X'celerator® as the detector.

[3] = 25° C.±2° C., relative humidity 60% ±5%, for 1, 2, 3, and 6 months

CCCSc1nc(N[C@@H]2C[C@H]2c2ccc(F)c(F)c2)c2nnn([C@@H]3C[C@H](OCCO)[C@@H](O)[C@H]3O)c2n1 [amorphous ticagrelor, (1S,2S,3R,5S)-3-[7-{[(1R,2S)-2-(3,4-difluorophenyl)cyclopropyl]amino}-5-(propylthio)-3H-[1,2,3]-triazolo[4,5-d]pyrimidin-3-yl]-5-(2-hydroxyethoxy)cyclopentane-1,2-diol]
HPLC purity (initial and at stability) ([1]; 5° C.±3° C. for 3 and 6 months): 99.9%
HPLC purity (initial and at stability) [1, 3]: 99.8%
Change in XRPD pattern on storage ([2]; 5° C.±3° C. for 3 and 6 months): no change was observed in the XRPD pattern
Change in XRPD pattern on storage ([2]; 5° C.±3° C. for 3 and 6 months, listed as stable amorphous ticagrelor): no change in XRPD pattern
Change in XRPD pattern on storage [2, 3]: no change was observed in the XRPD pattern
Change in XRPD pattern on storage ([2]; 25° C.±2° C., relative humidity 60% ±5%, for 1, 2, 3, and 6 months, listed as stable amorphous ticagrelor): no change in XRPD pattern
